Reference: the NIST ThermoML archive (doi:10.1016/j.jct.2016.03.026)
Numbers after ± are expanded uncertainties.

Test: xn = mol fraction of the nth substance listed
Settings: 273.15 K, Fluid (supercritical or subcritical phases), x1 = 0.97; for mass density: Vibrating tube method; for speed of sound: Frequency=5 MHz, Pulse-echo method

For `O=C=O` [carbon dioxide] + CO, the mass density (5000 kPa) was 943.89 ± 0.8 kg/m3, the mass density (5025 kPa) was 944.05 ± 0.8 kg/m3 and the mass density (5050 kPa) was 944.22 ± 0.8 kg/m3. It also gave a mass density (5075 kPa) of 944.38 ± 0.8 kg/m3, a mass density (5100 kPa) of 944.55 ± 0.8 kg/m3 and a mass density (5125 kPa) of 944.71 ± 0.8 kg/m3. It also gave a mass density (5150 kPa) of 944.88 ± 0.8 kg/m3, a mass density (5175 kPa) of 945.05 ± 0.8 kg/m3 and a mass density (5200 kPa) of 945.28 ± 0.8 kg/m3. The mass density (5225 kPa) was 945.45 ± 0.8 kg/m3, the mass density (5250 kPa) was 945.61 ± 0.8 kg/m3 and the mass density (5275 kPa) was 945.83 ± 0.8 kg/m3. It also gave a mass density (5300 kPa) of 945.95 ± 0.8 kg/m3, a mass density (5325 kPa) of 946.18 ± 0.8 kg/m3 and a mass density (5350 kPa) of 946.35 ± 0.8 kg/m3. The mass density (5375 kPa) was 946.51 ± 0.8 kg/m3, the mass density (5400 kPa) was 946.68 ± 0.8 kg/m3 and the mass density (5425 kPa) was 946.88 ± 0.8 kg/m3. It also gave a mass density (5450 kPa) of 947.02 ± 0.8 kg/m3, a mass density (5475 kPa) of 947.19 ± 0.8 kg/m3 and a mass density (5500 kPa) of 947.38 ± 0.8 kg/m3. The mass density (5525 kPa) was 947.55 ± 0.8 kg/m3, the mass density (5550 kPa) was 947.7 ± 0.8 kg/m3 and the mass density (5575 kPa) was 947.84 ± 0.8 kg/m3. For the same compound, the mass density (5600 kPa) was 948 ± 0.8 kg/m3, the mass density (5625 kPa) was 948.22 ± 0.8 kg/m3 and the mass density (5650 kPa) was 948.35 ± 0.8 kg/m3. For the same compound, the mass density (5675 kPa) was 948.48 ± 0.8 kg/m3, the mass density (5700 kPa) was 948.64 ± 0.8 kg/m3 and the mass density (5725 kPa) was 948.81 ± 0.8 kg/m3. For the same compound, the mass density (5750 kPa) was 948.97 ± 0.8 kg/m3, the mass density (5775 kPa) was 949.13 ± 0.8 kg/m3 and the mass density (5800 kPa) was 949.3 ± 0.8 kg/m3. For the same compound, the mass density (5825 kPa) was 949.41 ± 0.8 kg/m3, the mass density (5850 kPa) was 949.62 ± 0.8 kg/m3 and the mass density (5875 kPa) was 949.74 ± 0.8 kg/m3. The mass density (5900 kPa) was 949.87 ± 0.8 kg/m3, the mass density (5925 kPa) was 950.03 ± 0.8 kg/m3 and the mass density (5950 kPa) was 950.2 ± 0.8 kg/m3. For the same compound, the mass density (5975 kPa) was 950.35 ± 0.8 kg/m3, the mass density (6000 kPa) was 950.47 ± 0.8 kg/m3 and the speed of sound (6020 kPa) was 581.6 ± 1 m/s. It also gave a mass density (6025 kPa) of 950.61 ± 0.8 kg/m3, a speed of sound (6040 kPa) of 581 ± 1 m/s and a mass density (6050 kPa) of 950.77 ± 0.8 kg/m3. The mass density (6075 kPa) was 950.93 ± 0.8 kg/m3, the mass density (6100 kPa) was 951.1 ± 0.8 kg/m3 and the mass density (6125 kPa) was 951.26 ± 0.8 kg/m3. The mass density (6150 kPa) was 951.39 ± 0.8 kg/m3, the mass density (6175 kPa) was 951.59 ± 0.8 kg/m3 and the mass density (6200 kPa) was 951.67 ± 0.8 kg/m3. For the same compound, the mass density (6225 kPa) was 951.86 ± 0.8 kg/m3, the mass density (6250 kPa) was 952.08 ± 0.8 kg/m3 and the mass density (6275 kPa) was 952.24 ± 0.8 kg/m3. It also gave a mass density (6300 kPa) of 952.33 ± 0.8 kg/m3, a mass density (6325 kPa) of 952.49 ± 0.8 kg/m3 and a mass density (6350 kPa) of 952.65 ± 0.8 kg/m3. The mass density (6375 kPa) was 952.82 ± 0.8 kg/m3, the mass density (6400 kPa) was 952.98 ± 0.8 kg/m3 and the mass density (6425 kPa) was 953.14 ± 0.8 kg/m3. For the same compound, the mass density (6450 kPa) was 953.31 ± 0.8 kg/m3, the mass density (6475 kPa) was 953.47 ± 0.8 kg/m3 and the mass density (6500 kPa) was 953.64 ± 0.8 kg/m3. The mass density (6525 kPa) was 953.73 ± 0.8 kg/m3, the mass density (6550 kPa) was 953.88 ± 0.8 kg/m3 and the mass density (6575 kPa) was 954.04 ± 0.8 kg/m3. It also gave a mass density (6600 kPa) of 954.21 ± 0.8 kg/m3, a mass density (6625 kPa) of 954.37 ± 0.8 kg/m3 and a mass density (6650 kPa) of 954.53 ± 0.8 kg/m3. For the same compound, the mass density (6675 kPa) was 954.7 ± 0.8 kg/m3, the mass density (6700 kPa) was 954.86 ± 0.8 kg/m3 and the mass density (6725 kPa) was 955.03 ± 0.8 kg/m3. For the same compound, the mass density (6750 kPa) was 955.19 ± 0.8 kg/m3, the mass density (6775 kPa) was 955.35 ± 0.8 kg/m3 and the mass density (6800 kPa) was 955.52 ± 0.8 kg/m3. It also gave a mass density (6825 kPa) of 955.67 ± 0.8 kg/m3, a mass density (6850 kPa) of 955.82 ± 0.8 kg/m3 and a mass density (6875 kPa) of 955.96 ± 0.8 kg/m3. The mass density (6900 kPa) was 956.09 ± 0.8 kg/m3, the mass density (6925 kPa) was 956.25 ± 0.8 kg/m3 and the mass density (6950 kPa) was 956.42 ± 0.8 kg/m3. For the same compound, the mass density (6975 kPa) was 956.58 ± 0.8 kg/m3, the mass density (7000 kPa) was 956.75 ± 0.8 kg/m3 and the mass density (7025 kPa) was 956.91 ± 0.8 kg/m3. It also gave a mass density (7050 kPa) of 956.99 ± 0.8 kg/m3, a mass density (7075 kPa) of 957.15 ± 0.8 kg/m3 and a mass density (7100 kPa) of 957.34 ± 0.8 kg/m3. It also gave a mass density (7125 kPa) of 957.48 ± 0.8 kg/m3, a mass density (7150 kPa) of 957.65 ± 0.8 kg/m3 and a mass density (7175 kPa) of 957.81 ± 0.8 kg/m3. It also gave a mass density (7200 kPa) of 957.97 ± 0.8 kg/m3, a mass density (7225 kPa) of 958.14 ± 0.8 kg/m3 and a mass density (7250 kPa) of 958.27 ± 0.8 kg/m3. It also gave a mass density (7275 kPa) of 958.38 ± 0.8 kg/m3, a mass density (7300 kPa) of 958.55 ± 0.8 kg/m3 and a mass density (7325 kPa) of 958.71 ± 0.8 kg/m3. For the same compound, the mass density (7350 kPa) was 958.87 ± 0.8 kg/m3, the mass density (7375 kPa) was 959 ± 0.8 kg/m3 and the mass density (7400 kPa) was 959.12 ± 0.8 kg/m3. For the same compound, the mass density (7425 kPa) was 959.28 ± 0.8 kg/m3, the mass density (7450 kPa) was 959.45 ± 0.8 kg/m3 and the mass density (7475 kPa) was 959.61 ± 0.8 kg/m3. It also gave a mass density (7500 kPa) of 959.77 ± 0.8 kg/m3, a mass density (7525 kPa) of 959.94 ± 0.8 kg/m3 and a mass density (7550 kPa) of 960.02 ± 0.8 kg/m3. For the same compound, the mass density (7575 kPa) was 960.18 ± 0.8 kg/m3, the mass density (7600 kPa) was 960.35 ± 0.8 kg/m3 and the mass density (7625 kPa) was 960.51 ± 0.8 kg/m3. For the same compound, the mass density (7650 kPa) was 960.68 ± 0.8 kg/m3, the mass density (7675 kPa) was 960.84 ± 0.8 kg/m3 and the mass density (7700 kPa) was 960.92 ± 0.8 kg/m3. For the same compound, the mass density (7725 kPa) was 961.08 ± 0.8 kg/m3, the mass density (7750 kPa) was 961.25 ± 0.8 kg/m3 and the mass density (7775 kPa) was 961.41 ± 0.8 kg/m3. The mass density (7800 kPa) was 961.54 ± 0.8 kg/m3, the mass density (7825 kPa) was 961.66 ± 0.8 kg/m3 and the mass density (7850 kPa) was 961.82 ± 0.8 kg/m3. The mass density (7875 kPa) was 961.98 ± 0.8 kg/m3, the mass density (7900 kPa) was 962.15 ± 0.8 kg/m3 and the mass density (7925 kPa) was 962.23 ± 0.8 kg/m3. It also gave a mass density (7950 kPa) of 962.39 ± 0.8 kg/m3 and a mass density (7975 kPa) of 962.56 ± 0.8 kg/m3.
